The assay relates to Bmi-1. The assay is described as follows: Sandwich ELISA Assay (Bmi-1 ELISA in HT-1080 cells). It counts as cell-based, human. As to the method:
Cell Seeding and Compound Treatment (Day 1):
HT-1080 cells were seeded at 8000 cells/well (50 uL) in 96-well tissue culture plates. After the cells become adherent (3-4 hours), 2× diluted stocks of compounds in 50 uL DMEM containing 1% DMSO (final DMSO concentration was 0.5%) were added and the plates were incubated at 37° C. under 5% CO2 for 40-48 hours
ELISA Plate First Antibody Preparation (Day 2):
The First Antibody (Millipore Mouse, monoclonal to mouse Bmi-1, clone F6, catalog #05-637) diluted to 2 ug/mL in PBS was added (100 uL) to each well of a Nunc MaxiSorp 96-well ELISA plate. The plate was covered with a plate seal and allowed to stand overnight.
Cell Lysate Preparation (Day 3):
Fresh 1× Lysis buffer was prepared on the day of the assay as follows: 1 mM EDTA, 150 mM NaCl, 0.5% Triton-X 100, 10 mM NaF, 20 mM B-Glycerophosphate, 1 mM DTT (in PBS, pH 7.2-7.4) and 1×HALT protease inhibitor cocktail (Pierce #78410).
1× Lysis Buffer (40 uL) was added to each well and the plate was shaken for 5-10 minutes on an orbital shaker to allow cell lysis, then Diluent (1% BSA in PBS in 0.5% NP40) (100 uL) was added to each well.
The Bmi-1 standard curve was prepared in Diluent at the following concentrations of protein: 8000, 4000, 2000, 1000, 500, 250, 125, 0 pg/mL The Bmi-1 Recombinant Protein Standard (Novus Biologicals PCGF4 Recombinant Protein (P01), catalog #H00000648-P01) used in the standard curve was stored at −80° C., and on first thaw, diluted to 10 ug/uL in Blocking Buffer (1% BSA in PBS; BSA: Fisher Scientific Catalog #1600-100) before being aliquoted and refrozen at −80° C. Aliquots can be kept at 4° C. and reused after first thaw, but only for 1-2 weeks. The Bmi-1 Recombinant Protein Standard contains a GST-fusion tag and thus will show up on western blots around 70 Kda.
The prepared ELISA plate was washed 3× with Wash Buffer (0.05% Tween-20 in PBS). The final wash was removed from the plate and the plate was blotted dry on paper towels. Blocking Buffer (300 uL) (1% BSA in PBS) was added per well. The plate was covered with a plate seal and incubated at room temperature for 1 hour. The blocked plate was washed 3× with Wash Buffer, the final wash was removed and the plate was blotted dry on paper towels. The previously prepared samples and standards were added (at 100 uL/well) and the plate was covered with a plate seal and incubated at 4° C. overnight.
The prepared ELISA plate was removed from 4° C., incubated at room temperature for 30 minutes, then washed and blotted dry as previously described for Day 3. The Second Antibody (Cell Signaling Rabbit anti-Bmi-1, Cat#2830) diluted to 1:600 in Blocking Buffer was added (100 uL) to each well, except as needed for background control wells. The plate was covered with a plate seal and incubated for 1.5 hrs at room temperature.
The ELISA plate was washed and blotted dry as previously described. The Third Antibody (Cell Signaling HRP conjugated anti-rabbit IgG (CellSignaling, Cat#:7074) diluted to 1:300 in Blocking Buffer was added (100 uL) to each well, except as needed for background control wells. The plate was incubated for 1 hr at room temperature.
The plate was washed and blotted dry as previously described, then prepared TMB substrate (TMB substrate kit, Pierce catalog #34021) (prepared by mixing kit reagents 1:1) (100 uL) was added per well. The plate was incubated for 20-30 minutes at room temperature in the dark, then Stop Solution (2 M sulfuric acid in water) (50 uL) was added per well. The plates were read at OD450 (experimental) and OD570 (reference).
(In general: An ELISA detects its analyte on a solid surface through an enzyme-linked reagent.)
In turn, `COc1cc(F)c(Nc2nc(-c3c(C)nc4ccccn34)cs2)c(F)c1` [Cpd 57, N-(2,6-difluoro-4-methoxyphenyl)-4-(2-methylimidazo[1,2-a]pyridin-3-yl)-1,3-thiazol-2-amine] gave a half-inhibitory concentration (IC50) below 500 nM.

`Cc1nc2ccc(Cl)cn2c1-c1csc(Nc2ccc(N(C)C)cc2)n1` [Cpd 58, N′-[4-(6-chloro-2-methylimidazo[1,2-a]pyridin-3-yl)-1,3-thiazol-2-yl]-N,N-dimethylbenzene-1,4-diamine] gave an IC50 below 500 nM.

As to `COc1ccc(Nc2nc(-c3c(C)nc4ccc(Cl)cn34)cs2)cc1` [Cpd 59, 4-(6-chloro-2-methylimidazo[1,2-a]pyridin-3-yl)-N-(4-methoxyphenyl)-1,3-thiazol-2-amine], the IC50 was below 500 nM.

Take `Cc1nc2ccc(Cl)cn2c1-c1csc(Nc2ccc(Cl)cc2)n1` [Cpd 60, 4-(6-chloro-2-methylimidazo[1,2-a]pyridin-3-yl)-N-(4-chlorophenyl)-1,3-thiazol-2-amine]: the IC50 is below 500 nM.

`Cc1nc2ccc(Cl)cn2c1-c1csc(Nc2ccc(Br)cc2)n1` [Cpd 61, N-(4-bromophenyl)-4-(6-chloro-2-methylimidazo[1,2-a]pyridin-3-yl)-1,3-thiazol-2-amine] had an IC50 below 500 nM.

Molecule `CC(=O)c1ccc(Nc2nc(-c3c(C)nc4ccc(Cl)cn34)cs2)cc1` [Cpd 62, 1-(4-{[4-(6-chloro-2-methylimidazo[1,2-a]pyridin-3-yl)-1,3-thiazol-2-yl]amino}phenyl)ethanone] gave an IC50 below 500 nM.

On to `Cc1ccn2c(-c3csc(Nc4ccc5c(c4)OCO5)n3)c(C)nc2c1` [Cpd 63, N-(1,3-benzodioxol-5-yl)-4-(2,7-dimethylimidazo[1,2-a]pyridin-3-yl)-1,3-thiazol-2-amine], for which the IC50 was below 500 nM.

Take `Cc1ccn2c(-c3csc(Nc4ccc(N(C)C)cc4)n3)c(C)nc2c1` [Cpd 64, N′-[4-(2,7-dimethylimidazo[1,2-a]pyridin-3-yl)-1,3-thiazol-2-yl]-N,N-dimethylbenzene-1,4-diamine]: the IC50 is below 500 nM.

For the molecule `Cc1ccn2c(-c3csc(Nc4ccc(Cl)cc4)n3)c(C)nc2c1` [Cpd 65, N-(4-chlorophenyl)-4-(2,7-dimethylimidazo[1,2-a]pyridin-3-yl)-1,3-thiazol-2-amine], the IC50 is below 500 nM.

As to `COc1ccc(Nc2nc(-c3c(C)nc4cc(C)ccn34)cs2)cc1F` [Cpd 66, 4-(2,7-dimethylimidazo[1,2-a]pyridin-3-yl)-N-(3-fluoro-4-methoxyphenyl)-1,3-thiazol-2-amine], the IC50 is below 500 nM.

As to `COc1ccc(Nc2nc(-c3c(C)nc4cc(C)ccn34)cs2)cc1Cl` [Cpd 67, N-(3-chloro-4-methoxyphenyl)-4-(2,7-dimethylimidazo[1,2-a]pyridin-3-yl)-1,3-thiazol-2-amine], the IC50 is below 500 nM.

Turning to `Cc1ccn2c(-c3csc(Nc4ccc(Br)cc4)n3)c(C)nc2c1` [Cpd 68, N-(4-bromophenyl)-4-(2,7-dimethylimidazo[1,2-a]pyridin-3-yl)-1,3-thiazol-2-amine], the IC50 was below 500 nM.

The molecule `Cc1ccn2c(-c3csc(Nc4ccc(I)cc4)n3)c(C)nc2c1` [Cpd 69, 4-(2,7-dimethylimidazo[1,2-a]pyridin-3-yl)-N-(4-iodophenyl)-1,3-thiazol-2-amine] yielded an IC50 below 500 nM.

The molecule `Cc1ccc2nc(C)c(-c3csc(Nc4ccc(N(C)C)cc4)n3)n2c1` [Cpd 70, N′-[4-(2,6-dimethylimidazo[1,2-a]pyridin-3-yl)-1,3-thiazol-2-yl]-N,N-dimethylbenzene-1,4-diamine] displayed an IC50 below 500 nM.

Molecule `COc1ccc(Nc2nc(-c3c(C)nc4ccc(C)cn34)cs2)cc1` [Cpd 71, 4-(2,6-dimethylimidazo[1,2-a]pyridin-3-yl)-N-(4-methoxyphenyl)-1,3-thiazol-2-amine] registered an IC50 below 500 nM.

`Cc1ccc2nc(C)c(-c3csc(Nc4ccc5c(c4)OCO5)n3)n2c1` [Cpd 72, N-(1,3-benzodioxol-5-yl)-4-(2,6-dimethylimidazo[1,2-a]pyridin-3-yl)-1,3-thiazol-2-amine] showed an IC50 below 500 nM.

Consider `COc1ccc(Nc2nc(-c3c(C)nc4ccc(C)cn34)cs2)cc1Cl` [Cpd 73, N-(3-chloro-4-methoxyphenyl)-4-(2,6-dimethylimidazo[1,2-a]pyridin-3-yl)-1,3-thiazol-2-amine], for which the IC50 was below 500 nM.

The molecule `COCCOc1ccc(Nc2nc(-c3c(C)nc4ccc(C)cn34)cs2)cc1` [Cpd 74, 4-(2,6-dimethylimidazo[1,2-a]pyridin-3-yl)-N-[4-(2-methoxyethoxy)phenyl]-1,3-thiazol-2-amine] gave an IC50 below 500 nM.

In turn, `CCN(CC)c1ccc(Nc2nc(-c3c(C)nc4ccc(C)cn34)cs2)cc1` [Cpd 75, N′-[4-(2,6-dimethylimidazo[1,2-a]pyridin-3-yl)-1,3-thiazol-2-yl]-N,N-diethylbenzene-1,4-diamine] displayed an IC50 below 500 nM.

`Cc1ccc2nc(C)c(-c3csc(Nc4ccc(I)cc4)n3)n2c1` [Cpd 76, 4-(2,6-dimethylimidazo[1,2-a]pyridin-3-yl)-N-(4-iodophenyl)-1,3-thiazol-2-amine] showed an IC50 below 500 nM.

`Cc1ccc2nc(C)c(-c3csc(Nc4ccc(Br)cc4)n3)n2c1` [Cpd 77, N-(4-bromophenyl)-4-(2,6-dimethylimidazo[1,2-a]pyridin-3-yl)-1,3-thiazol-2-amine]: the IC50 was below 500 nM.

The molecule `Cc1ccc2nc(C)c(-c3csc(Nc4ccc(Cl)cc4)n3)n2c1` [Cpd 78, N-(4-chlorophenyl)-4-(2,6-dimethylimidazo[1,2-a]pyridin-3-yl)-1,3-thiazol-2-amine] registered an IC50 below 500 nM.

For `Ic1ccc(Nc2nc(-c3cnc4ccccn34)cs2)cc1` [Cpd 79, 4-(imidazo[1,2-a]pyridin-3-yl)-N-(4-iodophenyl)-1,3-thiazol-2-amine], the IC50 was below 500 nM.

`Cc1nc2ncccn2c1-c1csc(N(C)c2ccc(Br)cc2)n1` [Cpd 80, N-(4-bromophenyl)-N-methyl-4-(2-methylimidazo[1,2-a]pyrimidin-3-yl)-1,3-thiazol-2-amine] gave an IC50 below 500 nM.

`Cc1nc2ccc(Br)cn2c1-c1csc(Nc2ccc(N(C)C)cc2)n1` [Cpd 81, N′-[4-(6-bromo-2-methylimidazo[1,2-a]pyridin-3-yl)-1,3-thiazol-2-yl]-N,N-dimethylbenzene-1,4-diamine] registered an IC50 below 500 nM.

In turn, `Cc1nc2ccc(Br)cn2c1-c1csc(Nc2ccc3c(c2)OCO3)n1` [Cpd 82, N-(1,3-benzodioxol-5-yl)-4-(6-bromo-2-methylimidazo[1,2-a]pyridin-3-yl)-1,3-thiazol-2-amine] came in with an IC50 below 500 nM.

On to `Ic1ccc(Nc2nc(-c3cnc4ncccn34)cs2)cc1` [Cpd 83, 4-(imidazo[1,2-a]pyrimidin-3-yl)-N-(4-iodophenyl)-1,3-thiazol-2-amine], for which the IC50 lay within 500 to 1000 nM.

`COc1ccc(Nc2nc(-c3c(C)nc4ncccn34)cs2)cc1OC` [Cpd 84, N-(3,4-dimethoxyphenyl)-4-(2-methylimidazo[1,2-a]pyrimidin-3-yl)-1,3-thiazol-2-amine] showed an IC50 below 500 nM.

Molecule `Cc1ccc(Nc2nc(-c3c(C)nc4ncccn34)cs2)cc1` [Cpd 85, 4-(2-methylimidazo[1,2-a]pyrimidin-3-yl)-N-(4-methylphenyl)-1,3-thiazol-2-amine] registered an IC50 below 500 nM.

`CCc1ccc(Nc2nc(-c3c(C)nc4ncccn34)cs2)cc1` [Cpd 86, N-(4-ethylphenyl)-4-(2-methylimidazo[1,2-a]pyrimidin-3-yl)-1,3-thiazol-2-amine] registered an IC50 below 500 nM.

In general, IC50 refers to the concentration needed to halve the response being measured.

Values taken from patent US8680113B2, “BMI-1 protein expression modulators” (PTC Therapeutics, Inc., priority 2008, dated 2014).
